From patent publication US20240226078A9, “ENHANCEMENT OF MICROFRACTURE FOR REPAIRING CARTILAGE DEFECTS VIA WNT INHIBITION” (University of Pittsburgh - Of the Commonwealth System of …, priority 2021, published 2024)
Values after ≈ are worked out from the molar mass of the structure shown.

Experiments:
[1] = tested on: human bone marrow-derived stem cell (hBMSC)-derived cartilage; experiment: COL1 expression and deposition in hBMSC-derived cartilage under Wnt inhibition (gene expression, immunofluorescence); assay type: cell-based
Description: FIG. 1 illustrates a comparison of COL1 gene expression in Control and Wnt inhibition (Optimized) group. […] B) Collagen type 1 detection by immunofluorescence. Control group (i-iii); Optimized group (iv-vi). […] Bar −50 μm. […] In general, as used herein small molecule (therapeutic) compounds may, for example, have a molecular weight below 1.5 kDa or below 1.0 kDa.

[2] = single intraarticular injection; cited from earlier work
humans = conditions: cited from earlier work
[3] = cited from earlier work
hBMSC = conditions: lorecivivint alone, cited from earlier work
[4] = tested on: in vitro-expanded human chondrocytes; experiment: Western blot analysis of human chondrocytes treated for 3 days; assay type: cell-based; conditions: vs saline control (FIG. 2)
Description: FIG. 2 illustrates Western blot analysis for human chondrocytes treated with saline control (CON) and lorecivivint (LRC) for 3 days.
In that regards, FIG. 3 illustrates post-MFx events including: A) clot formation; B) stem cell migration, C) fibrogenesis, D) chondrogenesis and bone healing, and E) degeneration. To facilitate rapid clinical translation, it is desirable to repurpose clinically proven. human-safe Wnt inhibitors. Specifically, the Wnt inhibitor lorecivivint (SM04690), which suppresses CDC-like kinase 2 (CLK2) and dual-specificity tyrosine phosphorylation-regulated kinase 1A (DYRK1A) as well as Wnt/β-catenin signaling, has shown promising results for knee osteoarthritis as discussed above. […] The reparative outcome of Wnt- (for example, lorecivivint-) enhanced MFx provides an avenue to achieve long-term hyaline cartilage repair with a minimally invasive and cost-effective procedure, unattainable by current surgical procedures.

OA progression in rats = conditions: intraarticular, 0.3 μg dissolved in 50 μl saline (~12 nM); cited from earlier work
[5] = tested on: hBMSCs/blood clot construct; experiment: In vitro MFx model: chondrogenesis of hBMSCs/blood clot construct; assay type: cell-based, human; conditions: expected
Description: The cause of post-Mfx fibrocartilage formation remains unclear. An in vitro model hereof may be used to simulate post-MFx tissue remodeling for further study and/or optimization of methodologies hereof Since harvesting human post-MFx clots is not feasible, as one of the initial steps toward human studies/clinical trials, one may simulate such a post-MFx clot by encapsulating stem cells such as hBMSCs within a clot derived from human peripheral blood as described herein. Optimization studies hereof may thus proceed via such a novel in vitro model which simulates post-MFx fibrocartilage formation (see FIG. 3) and assess treatment efficacy. As illustrated schematically in FIG. 4, to mimic the post-MFx clot, stem cells such as human bone marrow-derived stem cells (hBMSCs), the likely progenitor cells contributing to MFx repair, are encapsulated within clots derived from human peripheral blood. hBMSCs/blood clot may be differentiated using, for example, a chondroinductive factor such as insulin growth factor-1 (IGF-1), one of the major synovial fluid chondroinductive factors. The hBMSCs/blood clot may, for example, be induced to differentiate into fibrocartilage upon stimulation by IGF-1 (and/or other chondroinductive factor(s)), at physiological concentration. Application of Wnt inhibitors such lorecivivint in the model allows study of the augmentation of chondrogenesis and/or reduction of fibrosis. The hBMSCs/blood clot is thereby induced to differentiate into fibrocartilage upon such stimulation. Lorecivivint and/or other Wnt inhibitor are added to the clot to study the augmentation of chondrogenesis and reduction of fibrosis.
B. In vitro model—chondrogenesis of hBMSCs/blood clot construct. hBMSCs/blood clots may, for example, be cultured in differentiation medium containing either 0, 10, 20, 50, or 100 ng/ml IGF-1. Lorecivivint may be introduced using the concentrations described above
Preparation of hBMSCs/blood clot construct. […]

Structure (SMILES)	chondrogenesis [1]	COL1 expression ([1]; compared to controls (FIG. 1A), p<0.05)	COL1 protein deposition ([1]; immunofluorescence, compared to controls (FIG. 1B))	knee joint residence time [2]	safety of injection (humans)	solubility [3]	COL1 expression (hBMSC; hBMSC chondrogenesis)	initiation of hBMSC chondrogenesis (hBMSC)	COL1 expression [4]	OA progression (OA progression in rats)	COL1 immunostaining ([5]; treated constructs)	COL1, 3, FN, α-SMA expression levels ([5]; vs untreated group)	COL2, AGG, SOX9, COMP, PRG4, and COL2/COL1 expression levels ([5]; vs untreated group)
Oc1nc(-c2ccc(C(F)(F)F)cc2)nc2c1CSCC2 [XAV939]	without impairing chondrogenesis	significantly lowers	significantly lowers										
CC(C)CC(=O)Nc1cncc(-c2ccc3[nH]nc(-c4nc5cncc(-c6cccc(F)c6)c5[nH]4)c3c2)c1 [lorecivivint]				> 180 days	safe	~5 mM (≈ 2530 µg/mL)	minimal	sufficient to initiate hBMSC chondrogenesis	significantly reduced	significantly ameliorates	absent or localized only to the marginal regions	significantly lower	higher than untreated group
